Converted amounts (≈) assume the structure as drawn.
Tests used:
Assay type in all cases: cell-based
RhV-14 (Rhinovirus) = assay: microbe, parasite or virus in culture; conditions: Enterovirus; 120 hours at 32° C.; read-out: IC50 (50 percent inhibition of plaque formation), RhV-14
PV-1 (poliovirus) = assay: microbe, parasite or virus in culture; conditions: Enterovirus C, 72 h, read-out: IC50 (50 percent inhibition of plaque formation), PV-1
CS-21C (Coxsackie virus) = assay: organism not typed; conditions: 72 hours at 37° C.; read-out: IC50 (50 percent inhibition of plaque formation), CS-21C

| SMILES | IC50 (RhV-14 (Rhinovirus)) [µg/mL] | IC50 (PV-1 (poliovirus)) [µg/mL] | IC50 (CS-21C (Coxsackie virus)) [µg/mL] |
| --- | --- | --- | --- |
| CC(C)S(=O)(=O)n1c(N)nc2ccc(C(=O)c3ccc(OC(F)(F)F)cc3)cc21 [Example 6] | 0.329 (≈ 0.77 µM) |  |  |
| CC(C)S(=O)(=O)n1c(N)nc2ccc(C(=O)c3cc(F)ccc3F)cc21 [Example 20] | 1.32 (≈ 3.48 µM) | 0.19 (≈ 0.501 µM) |  |
| CC(C)S(=O)(=O)n1c(N)nc2ccc(C(=O)c3ccccc3F)cc21 [Example 11] |  | 1.7 (≈ 4.7 µM) | 0.44 (≈ 1.22 µM) |
| CC(C)S(=O)(=O)n1c(N)nc2ccc(C(=O)c3cccc(F)c3)cc21 [Example 3] | 2.14 (≈ 5.92 µM) |  |  |
| CC(C)S(=O)(=O)n1c(N)nc2ccc(C(=O)c3cc(F)cc(F)c3)cc21 [Example 5] | 3.9 (≈ 10.3 µM) |  |  |

— patent publication US5545653A (priority 1995, dated 1996)
